The assay addresses T1, Dimer of Gag-Pol polyprotein [501-599,Q508K,L534I,L564I,C568A,C596A] (Human immunodeficiency virus 1, UniProt P03367, C568A/C596A/L534I/L564I/Q508K).
T1 construct: 501-599
As to the kind of experiment: Protease Inhibition Assay. The settings on record: pH 6.4; 25 °C. How it is done: The Ki values were determined using fluorogenic substrate, 2-(aminobenzoyl)-Thr-Ile-Nle-Phe(p-NO2)-Gln-ArgNH2. A standard curve relating changes in fluorescent intensity to changes in concentration of product was used to convert fluorescent changes into molar velocities. The amount of cleavage was determined by HPLC.
Usually Ki stands for the dissociation constant of the complex between target and ligand, obtained from inhibition or displacement. Molecule `COC(=O)c1cccc(C[C@H]2C[C@H](Cc3ccccc3)N(C[C@@H](O)C[C@@H](Cc3ccccc3)C(=O)N[C@H]3c4ccccc4C[C@H]3O)C2=O)c1` [methyl 3-{[(3S,5R)-5-benzyl-1-[(2S,4R)-4-benzyl-2-hydroxy-4-{[(1S,2R)-2-hydroxy-2,3-dihydro-1H-inden-1-yl]carbamoyl}butyl]-2-oxopyrrolidin-3-yl]methyl}benzoate] gave a Ki of 420 pM. The figure for `NC(=O)c1cccc(C[C@H]2C[C@H](Cc3ccccc3)N(C[C@@H](O)C[C@@H](Cc3ccccc3)C(=O)N[C@H]3c4ccccc4C[C@H]3O)C2=O)c1` [3-{[(3S,5R)-5-benzyl-1-[(2S,4R)-4-benzyl-2-hydroxy-4-{[(1S,2R)-2-hydroxy-2,3-dihydro-1H-inden-1-yl]carbamoyl}butyl]-2-oxopyrrolidin-3-yl]methyl}benzamide] is 100 pM; for `CCOC(=O)CNC(=O)Nc1cccc(C[C@H]2C[C@H](Cc3ccccc3)N(C[C@@H](O)C[C@@H](Cc3ccccc3)C(=O)N[C@H]3c4ccccc4C[C@H]3O)C2=O)c1` [ethyl 2-{[(3-{[(3S,5R)-5-benzyl-1-[(2S,4R)-4-benzyl-2-hydroxy-4-{[(1S,2R)-2-hydroxy-2,3-dihydro-1H-inden-1-yl]carbamoyl}butyl]-2-oxopyrrolidin-3-yl]methyl}phenyl)carbamoyl]amino}acetate] it is 100 pM. Molecule `Nc1cccc(C[C@H]2C[C@H](Cc3ccccc3)N(C[C@@H](O)C[C@@H](Cc3ccccc3)C(=O)N[C@H]3c4ccccc4C[C@H]3O)C2=O)c1` [(2R,4S)-5-[(3S,5R)-3-[(3-aminophenyl)methyl]-5-benzyl-2-oxopyrrolidin-1-yl]-2-benzyl-4-hydroxy-N-[(1S,2R)-2-hydroxy-2,3-dihydro-1H-inden-1-yl]pentanamide] returned a Ki of 100 pM.

In turn, `N#CCOc1cccc(C[C@H]2C[C@H](Cc3ccccc3)N(C[C@@H](O)C[C@@H](Cc3ccccc3)C(=O)N[C@H]3c4ccccc4C[C@H]3O)C2=O)c1` [(2R,4S)-2-benzyl-5-[(3S,5R)-5-benzyl-3-{[3-(cyanomethoxy)phenyl]methyl}-2-oxopyrrolidin-1-yl]-4-hydroxy-N-[(1S,2R)-2-hydroxy-2,3-dihydro-1H-inden-1-yl]pentanamide] yielded a Ki of 80 pM. Regarding `NC(=O)c1cccc(C[C@H]2C[C@H](Cc3ccccc3)N(C[C@@H](O)C[C@@H](Cc3ccc(OCCO)cc3)C(=O)N[C@H]3c4ccccc4C[C@H]3O)C2=O)c1` [3-{[(3S,5R)-5-benzyl-1-[(2S,4R)-2-hydroxy-4-{[(1S,2R)-2-hydroxy-2,3-dihydro-1H-inden-1-yl]carbamoyl}-4-{[4-(2-hydroxyethoxy)phenyl]methyl}butyl]-2-oxopyrrolidin-3-yl]methyl}benzamide], the Ki was found to be 50 pM. With `N#Cc1cccc(C[C@H]2C[C@H](Cc3ccccc3)N(C[C@@H](O)C[C@@H](Cc3ccccc3)C(=O)N[C@H]3c4ccccc4C[C@H]3O)C2=O)c1` [(2R,4S)-2-benzyl-5-[(3S,5R)-5-benzyl-3-[(3-cyanophenyl)methyl]-2-oxopyrrolidin-1-yl]-4-hydroxy-N-[(1S,2R)-2-hydroxy-2,3-dihydro-1H-inden-1-yl]pentanamide], the Ki was 50 pM.

The molecule `O=C(N[C@H]1c2ccccc2C[C@H]1O)[C@H](Cc1ccccc1)C[C@H](O)CN1C(=O)[C@@H](Cc2cccc(O)c2)C[C@@H]1Cc1ccccc1` [(2R,4S)-2-benzyl-5-[(3S,5R)-5-benzyl-3-[(3-hydroxyphenyl)methyl]-2-oxopyrrolidin-1-yl]-4-hydroxy-N-[(1S,2R)-2-hydroxy-2,3-dihydro-1H-inden-1-yl]pentanamide] showed an inhibition constant (Ki) of 50 pM. Then `CCNC(=O)Nc1cccc(C[C@H]2C[C@H](Cc3ccccc3)N(C[C@@H](O)C[C@@H](Cc3ccccc3)C(=O)N[C@H]3c4ccccc4C[C@H]3O)C2=O)c1` [(2R,4S)-2-benzyl-5-[(3S,5R)-5-benzyl-3-({3-[(ethylcarbamoyl)amino]phenyl}methyl)-2-oxopyrrolidin-1-yl]-4-hydroxy-N-[(1S,2R)-2-hydroxy-2,3-dihydro-1H-inden-1-yl]pentanamide], with 200 pM. In turn, `Nc1ccc(CC2C[C@H](Cc3ccccc3)N(C[C@@H](O)C[C@@H](Cc3ccccc3)C(=O)N[C@H]3c4ccccc4C[C@H]3O)C2=O)cc1` (stereo partly drawn) [(2R,4S)-5-[(5R)-3-[(4-aminophenyl)methyl]-5-benzyl-2-oxopyrrolidin-1-yl]-2-benzyl-4-hydroxy-N-[(1S,2R)-2-hydroxy-2,3-dihydro-1H-inden-1-yl]pentanamide] came in with a Ki of 2300 pM. Turning to `N#Cc1ccc(CC2C[C@H](Cc3ccccc3)N(C[C@@H](O)C[C@@H](Cc3ccccc3)C(=O)N[C@H]3c4ccccc4C[C@H]3O)C2=O)cc1` (stereo partly drawn) [(2R,4S)-2-benzyl-5-[(5R)-5-benzyl-3-[(4-cyanophenyl)methyl]-2-oxopyrrolidin-1-yl]-4-hydroxy-N-[(1S,2R)-2-hydroxy-2,3-dihydro-1H-inden-1-yl]pentanamide], the affinity corresponds to a Ki of 340 pM. Then `O=C(N[C@H]1c2ccccc2C[C@H]1O)[C@H](Cc1ccccc1)C[C@H](O)CN1C(=O)C(Cc2ccncc2)C[C@@H]1Cc1ccccc1` (stereo partly drawn) [(2R,4S)-2-benzyl-5-[(5R)-5-benzyl-2-oxo-3-(pyridin-4-ylmethyl)pyrrolidin-1-yl]-4-hydroxy-N-[(1S,2R)-2-hydroxy-2,3-dihydro-1H-inden-1-yl]pentanamide], with 310 pM; and `NC(=O)COc1cccc(C[C@H]2C[C@H](Cc3ccccc3)N(C[C@@H](O)C[C@@H](Cc3ccccc3)C(=O)N[C@H]3c4ccccc4C[C@H]3O)C2=O)c1` [(2R,4S)-2-benzyl-5-[(3S,5R)-5-benzyl-3-{[3-(carbamoylmethoxy)phenyl]methyl}-2-oxopyrrolidin-1-yl]-4-hydroxy-N-[(1S,2R)-2-hydroxy-2,3-dihydro-1H-inden-1-yl]pentanamide], with 90 pM.

`O=C(NCCN1CCOCC1)c1cccc(C[C@H]2C[C@H](Cc3ccccc3)N(C[C@@H](O)C[C@@H](Cc3ccccc3)C(=O)N[C@H]3c4ccccc4C[C@H]3O)C2=O)c1` [3-{[(3S,5R)-5-benzyl-1-[(2S,4R)-4-benzyl-2-hydroxy-4-{[(1S,2R)-2-hydroxy-2,3-dihydro-1H-inden-1-yl]carbamoyl}butyl]-2-oxopyrrolidin-3-yl]methyl}-N-[2-(morpholin-4-yl)ethyl]benzamide]: affinity was put at a Ki of 150 pM.

In the case of `O=C(NCCOCCO)c1cccc(C[C@H]2C[C@H](Cc3ccccc3)N(C[C@@H](O)C[C@@H](Cc3ccccc3)C(=O)N[C@H]3c4ccccc4C[C@H]3O)C2=O)c1` [3-{[(3S,5R)-5-benzyl-1-[(2S,4R)-4-benzyl-2-hydroxy-4-{[(1S,2R)-2-hydroxy-2,3-dihydro-1H-inden-1-yl]carbamoyl}butyl]-2-oxopyrrolidin-3-yl]methyl}-N-[2-(2-hydroxyethoxy)ethyl]benzamide], the affinity corresponds to a Ki of 240 pM.
